Common to all, as to test: covalent labelling, streptavidin enrichment, LC-MS/MS
Common to all, as to conditions: 30 uM probe, 1 h, mouse liver pieces

Experiment [1] concerns the target T1, monoamine oxidase A (MAOA) (Mus musculus, UniProt Q64133).
T1 construct: native, in intact mouse liver pieces
T1 sequence (Q64133 1-526): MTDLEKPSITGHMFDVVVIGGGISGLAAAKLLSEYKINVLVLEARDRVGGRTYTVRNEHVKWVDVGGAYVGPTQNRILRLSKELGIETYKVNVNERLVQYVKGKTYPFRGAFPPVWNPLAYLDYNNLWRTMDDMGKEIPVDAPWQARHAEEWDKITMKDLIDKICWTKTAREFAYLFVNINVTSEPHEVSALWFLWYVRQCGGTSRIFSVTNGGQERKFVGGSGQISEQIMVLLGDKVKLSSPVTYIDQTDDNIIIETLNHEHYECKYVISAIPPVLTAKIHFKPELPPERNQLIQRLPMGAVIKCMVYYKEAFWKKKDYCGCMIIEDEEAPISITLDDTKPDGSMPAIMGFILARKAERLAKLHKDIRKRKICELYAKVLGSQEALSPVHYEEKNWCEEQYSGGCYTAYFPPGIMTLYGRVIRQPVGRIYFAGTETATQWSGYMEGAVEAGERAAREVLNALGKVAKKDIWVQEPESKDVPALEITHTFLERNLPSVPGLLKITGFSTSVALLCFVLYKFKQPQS

For a further experiment, the target named is T2, CYP2D10 (Mus musculus, UniProt P24456).
T2 construct: native, in intact mouse liver pieces
T2 sequence (P24456 1-504): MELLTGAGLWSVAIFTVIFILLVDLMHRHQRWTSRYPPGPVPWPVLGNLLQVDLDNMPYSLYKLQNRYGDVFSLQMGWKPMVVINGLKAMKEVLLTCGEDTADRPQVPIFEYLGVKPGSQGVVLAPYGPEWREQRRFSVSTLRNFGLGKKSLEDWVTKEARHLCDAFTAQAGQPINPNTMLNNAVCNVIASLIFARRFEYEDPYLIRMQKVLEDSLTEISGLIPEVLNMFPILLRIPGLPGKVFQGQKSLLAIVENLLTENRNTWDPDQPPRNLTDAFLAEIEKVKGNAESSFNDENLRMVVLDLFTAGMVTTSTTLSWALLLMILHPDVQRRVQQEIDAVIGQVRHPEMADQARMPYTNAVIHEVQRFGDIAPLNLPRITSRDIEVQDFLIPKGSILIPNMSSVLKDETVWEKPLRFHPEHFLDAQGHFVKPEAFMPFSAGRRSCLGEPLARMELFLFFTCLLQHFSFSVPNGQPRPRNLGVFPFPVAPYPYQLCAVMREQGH

For experiment [2], the target named is T3, glycerol-3-phosphate dehydrogenase mitochondrial (GPD2) (Mus musculus, UniProt Q64521).
T3 construct: native, in intact mouse liver pieces
T3 sequence (Q64521 43-727): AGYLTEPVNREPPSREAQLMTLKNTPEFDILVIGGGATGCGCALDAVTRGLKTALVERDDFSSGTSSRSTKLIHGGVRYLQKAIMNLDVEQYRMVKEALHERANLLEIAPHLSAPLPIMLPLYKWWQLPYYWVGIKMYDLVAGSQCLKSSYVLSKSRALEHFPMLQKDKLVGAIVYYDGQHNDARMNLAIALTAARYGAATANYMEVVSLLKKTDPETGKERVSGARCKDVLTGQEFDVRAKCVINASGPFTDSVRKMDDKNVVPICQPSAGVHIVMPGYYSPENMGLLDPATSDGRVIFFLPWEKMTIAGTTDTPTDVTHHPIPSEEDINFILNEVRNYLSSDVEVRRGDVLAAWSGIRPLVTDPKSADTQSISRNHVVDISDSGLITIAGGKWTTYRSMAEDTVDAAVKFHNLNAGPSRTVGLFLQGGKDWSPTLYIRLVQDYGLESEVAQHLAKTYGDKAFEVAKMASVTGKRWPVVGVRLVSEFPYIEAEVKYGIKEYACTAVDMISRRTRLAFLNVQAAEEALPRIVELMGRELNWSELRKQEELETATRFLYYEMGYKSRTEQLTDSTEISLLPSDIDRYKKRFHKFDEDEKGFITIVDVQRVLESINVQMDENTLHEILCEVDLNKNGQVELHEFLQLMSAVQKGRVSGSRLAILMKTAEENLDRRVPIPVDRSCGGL

Experiment [3] concerns the target T4, choline dehydrogenase (CHDH, mCHDH) (Mus musculus, UniProt Q8BJ64).
T4 construct: native, in intact mouse liver pieces
T4 sequence (Q8BJ64 35-596): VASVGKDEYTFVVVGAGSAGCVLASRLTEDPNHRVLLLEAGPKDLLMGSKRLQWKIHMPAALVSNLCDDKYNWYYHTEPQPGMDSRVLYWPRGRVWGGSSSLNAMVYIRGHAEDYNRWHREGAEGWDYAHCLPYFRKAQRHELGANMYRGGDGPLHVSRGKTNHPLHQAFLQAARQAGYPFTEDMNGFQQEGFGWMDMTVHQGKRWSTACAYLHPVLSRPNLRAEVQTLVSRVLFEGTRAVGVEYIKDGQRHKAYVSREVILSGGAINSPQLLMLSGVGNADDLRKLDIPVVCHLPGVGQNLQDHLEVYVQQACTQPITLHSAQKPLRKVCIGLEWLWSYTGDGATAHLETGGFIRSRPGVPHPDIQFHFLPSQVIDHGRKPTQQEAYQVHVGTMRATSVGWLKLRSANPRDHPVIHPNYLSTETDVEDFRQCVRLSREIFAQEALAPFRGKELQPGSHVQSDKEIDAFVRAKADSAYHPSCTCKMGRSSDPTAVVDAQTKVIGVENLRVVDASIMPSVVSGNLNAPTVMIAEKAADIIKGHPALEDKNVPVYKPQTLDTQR

In experiment [4] the target is T5, aldehyde oxidase 1 (AOX1) (Mus musculus, UniProt O54754).
T5 construct: native, in intact mouse liver pieces
T5 sequence (O54754 1-1333): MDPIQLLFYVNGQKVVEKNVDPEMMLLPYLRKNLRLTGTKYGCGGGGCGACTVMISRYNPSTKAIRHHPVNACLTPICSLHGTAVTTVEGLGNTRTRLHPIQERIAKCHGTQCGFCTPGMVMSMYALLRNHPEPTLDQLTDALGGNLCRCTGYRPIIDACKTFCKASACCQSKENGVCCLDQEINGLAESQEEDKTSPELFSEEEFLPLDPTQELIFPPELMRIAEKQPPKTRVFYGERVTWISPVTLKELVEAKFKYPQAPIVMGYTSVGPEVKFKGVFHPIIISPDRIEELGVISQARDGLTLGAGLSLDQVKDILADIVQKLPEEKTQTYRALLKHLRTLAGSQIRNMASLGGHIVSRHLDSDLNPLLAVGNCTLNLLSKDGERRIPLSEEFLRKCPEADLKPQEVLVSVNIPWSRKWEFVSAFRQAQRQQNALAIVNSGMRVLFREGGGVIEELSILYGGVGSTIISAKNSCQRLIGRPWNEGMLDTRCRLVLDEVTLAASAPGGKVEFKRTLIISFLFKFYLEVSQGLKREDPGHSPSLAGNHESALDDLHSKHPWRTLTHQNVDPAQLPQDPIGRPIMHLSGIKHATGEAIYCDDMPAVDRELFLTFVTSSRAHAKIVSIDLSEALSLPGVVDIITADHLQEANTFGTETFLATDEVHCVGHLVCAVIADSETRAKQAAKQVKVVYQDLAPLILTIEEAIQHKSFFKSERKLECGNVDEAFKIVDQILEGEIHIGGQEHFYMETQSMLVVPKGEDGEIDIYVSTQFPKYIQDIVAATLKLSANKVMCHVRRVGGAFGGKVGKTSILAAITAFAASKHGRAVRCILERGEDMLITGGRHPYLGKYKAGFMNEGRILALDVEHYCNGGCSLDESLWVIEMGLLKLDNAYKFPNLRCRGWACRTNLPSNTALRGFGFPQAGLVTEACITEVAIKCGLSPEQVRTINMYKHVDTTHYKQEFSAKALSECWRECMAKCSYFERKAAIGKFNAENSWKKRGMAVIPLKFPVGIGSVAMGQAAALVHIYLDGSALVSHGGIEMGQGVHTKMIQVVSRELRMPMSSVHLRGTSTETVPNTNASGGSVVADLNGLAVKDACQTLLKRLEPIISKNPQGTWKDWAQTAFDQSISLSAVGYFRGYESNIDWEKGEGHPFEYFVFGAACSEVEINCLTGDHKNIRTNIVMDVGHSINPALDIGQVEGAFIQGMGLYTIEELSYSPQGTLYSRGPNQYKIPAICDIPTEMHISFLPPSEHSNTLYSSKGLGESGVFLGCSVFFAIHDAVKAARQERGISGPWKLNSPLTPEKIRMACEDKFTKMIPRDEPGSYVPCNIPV

We go through four molecules from PMC11912224, “A general approach for activity-based protein profiling of oxidoreductases with redox-differentiated diarylhalonium warheads” (Chemical Science, 2025).

Regarding `[N-]=[N+]=NCCOCCOCCOCCNC(=O)c1ccc2c(c1)-c1ccccc1[Br+]2` [3fb, diphenylenebromonium probe 3fb], the “covalent labelling, streptavidin enrichment, LC-MS/MS” value (“covalent labelling” for short) in experiment [1] was “MAOA exclusively by diarylbromonium probe 3fb”.

Regarding `[N-]=[N+]=NCCCCCCCCCCNC(=O)c1ccc2c(c1)[Br+]c1ccccc1-2` [3ga, diphenylenebromonium-based probe 3ga], the “covalent labelling” value is “two significantly enriched CYP450s (CYP27A1, CYP2D10)” on CYP2D10 and “GPD2 was exclusively enriched by diarylbromonium probe 3ga” in experiment [2].

For the molecule `[N-]=[N+]=NCCCCCCCCCCNC(=O)c1ccc2c(c1)-c1ccccc1[Cl+]2` [3ha, diphenylenechloronium-based probe 3ha], the “covalent labelling” value in experiment [3] is on record as “choline dehydrogenase (CHDH), which is similar to the bacterial choline oxidase”.

Regarding `[N-]=[N+]=NCCCCCCCCCCNC(=O)c1ccc2c(c1)[I+]c1ccccc1-2` [3da, diphenyleneiodonium-based probe 3da], in experiment [4], the “covalent labelling” value is “five are oxidoreductases (CYP27A1, CYP2D10, CYP3A25, HMOX2, and AOX1)”.
